Measured values from the supplement of paper PMC4314810.
± gives the standard deviation of the averaged measurements.

What follows are sequences tested on MCF7 (assay: HRG-induced Akt activation (dPAkt = log2 pAkt/Akt HRG-stimulated minus log2 pAkt/Akt basal) (log2 ratio difference); higher = stronger HRG-induced Akt(T308) phosphorylation). Conditions: miRNA mimic concentration 10 nM; time after transfection 72 h; heregulin 10 ng/ml; stimulation time 1 h.
Procedure, shortened: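 MCF7 cells ([…], 96-well plates) carrying one of 879 miRNA mimics, transfected at 10 nM final with Lipofectamine RNAiMax in two biological replicates, were stimulated after 72 h with 10 ng/ml heregulin-beta1 for 1 h or left unstimulated. Phospho-Akt(T308) and total Akt in cells fixed with 4% PFA were read by In-Cell Western on an Odyssey and corrected for column-wise fixation decay to give log2(pAkt/Akt). Heregulin-induced Akt activation is the replicate mean of stimulated minus unstimulated ratios.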

Question: For CAUCUUACUGGGCAGCAUUGGA, which “HRG-induced Akt activation (log2)” value is on record?
Answer: 2.05 ± 0.12

Question: For GAUUUCAGUGGAGUGAAGUUC, which “HRG-induced Akt activation (log2)” value is on record?
Answer: 1.744 ± 0.0085

Question: CAAUCACUAACUCCACUGCCAU was tested. Which “HRG-induced Akt activation (log2)” value did it give?
Answer: 1.69 ± 0.37

Question: How did the “HRG-induced Akt activation (log2)” value turn out when AAAAGCUGGGUUGAGAGGA was run?
Answer: 1.507 ± 0.011

Question: For UAUACCUCAGUUUUAUCAGGUG, which “HRG-induced Akt activation (log2)” value is on record?
Answer: 1.94 ± 0.15

Question: Which “HRG-induced Akt activation (log2)” value does the source give for UUCUCAAGGAGGUGUCGUUUAU here?
Answer: 0.993 ± 0.67

Question: With UGGUGGGCACAGAAUCUGGACU as the sequence, how does the “HRG-induced Akt activation (log2)” value read?
Answer: 1.74 ± 0.12

Question: How did the “HRG-induced Akt activation (log2)” value turn out when UGGUGGUUUACAAAGUAAUUCA was run?
Answer: 1.29 ± 0.11

Question: UAUGUGCCUUUGGACUACAUCG was tested. Which “HRG-induced Akt activation (log2)” value did it give?
Answer: 1.56 ± 0.13

Question: CUCCUAUAUGAUGCCUUUCUUC was tested. Which “HRG-induced Akt activation (log2)” value did it give?
Answer: 1.72 ± 0.36

Question: How did the “HRG-induced Akt activation (log2)” value turn out when GUGUCUUUUGCUCUGCAGUCA was run?
Answer: 1.75 ± 0.15

Question: For CCACACCGUAUCUGACACUUU, which “HRG-induced Akt activation (log2)” value is on record?
Answer: 1.36 ± 0.12

Question: How did the “HRG-induced Akt activation (log2)” value turn out when UGAGCUAAAUGUGUGCUGGGA was run?
Answer: 1.26 ± 0.69

Question: CAAGAACCUCAGUUGCUUUUGU was tested. Which “HRG-induced Akt activation (log2)” value did it give?
Answer: 1.15 ± 0.34

Question: ACUGCAUUAUGAGCACUUAAAG was tested. Which “HRG-induced Akt activation (log2)” value did it give?
Answer: 1.66 ± 0.41

Question: Which “HRG-induced Akt activation (log2)” value does the source give for CUCUUGAGGGAAGCACUUUCUGU here?
Answer: 2.16 ± 0.45

Question: With UACCCAUUGCAUAUCGGAGUUG as the sequence, how does the “HRG-induced Akt activation (log2)” value read?
Answer: 1.78 ± 0.071

Question: For GCAAAGCACACGGCCUGCAGAGA, which “HRG-induced Akt activation (log2)” value is on record?
Answer: 1.27 ± 0.08

Question: AGGAAGCCCUGGAGGGGCUGGAG was tested. Which “HRG-induced Akt activation (log2)” value did it give?
Answer: 1.1 ± 0.6

Question: With AAGUAGUUGGUUUGUAUGAGAUGGUU as the sequence, how does the “HRG-induced Akt activation (log2)” value read?
Answer: 1.424 ± 0.014

Question: With UCUAUACAGACCCUGGCUUUUC as the sequence, how does the “HRG-induced Akt activation (log2)” value read?
Answer: 1.14 ± 0.18

Question: UUUGUUCGUUCGGCUCGCGUGA was tested. Which “HRG-induced Akt activation (log2)” value did it give?
Answer: 1.23 ± 0.27

Question: Which “HRG-induced Akt activation (log2)” value does the source give for AAAAGUAAUUGCGGUCUUUGGU here?
Answer: 1.32 ± 0.034

Question: How did the “HRG-induced Akt activation (log2)” value turn out when CGAAAACAGCAAUUACCUUUGC was run?
Answer: 1.364 ± 0.0018

Question: With UUCUCCAAAAGGGAGCACUUUC as the sequence, how does the “HRG-induced Akt activation (log2)” value read?
Answer: 2.3 ± 0.097

Question: With AAAAGUAUUUGCGGGUUUUGUC as the sequence, how does the “HRG-induced Akt activation (log2)” value read?
Answer: 1.58 ± 0.098

Question: UGAGGUAGUAGUUUGUACAGUU was tested. Which “HRG-induced Akt activation (log2)” value did it give?
Answer: 1.47 ± 0.12

Question: For AAGUGCUUCCUUUUAGAGGGUU, which “HRG-induced Akt activation (log2)” value is on record?
Answer: 0.817 ± 0.012

Question: Which “HRG-induced Akt activation (log2)” value does the source give for ACAGUAGAGGGAGGAAUCGCAG here?
Answer: 1.42 ± 0.22

Question: How did the “HRG-induced Akt activation (log2)” value turn out when UAAGGCACCCUUCUGAGUAGA was run?
Answer: 1.51 ± 0.1

Question: AAGCCCUUACCCCAAAAAGCAU was tested. Which “HRG-induced Akt activation (log2)” value did it give?
Answer: 1.6 ± 0.26

Question: How did the “HRG-induced Akt activation (log2)” value turn out when CUUCCUCGUCUGUCUGCCCC was run?
Answer: 1.02 ± 0.055

Question: With GGUUUGGUCCUAGCCUUUCUA as the sequence, how does the “HRG-induced Akt activation (log2)” value read?
Answer: 1.47 ± 0.2

Question: AAAAUGGUUCCCUUUAGAGUGU was tested. Which “HRG-induced Akt activation (log2)” value did it give?
Answer: 1.21 ± 0.31

Question: UGGGUGGUCUGGAGAUUUGUGC was tested. Which “HRG-induced Akt activation (log2)” value did it give?
Answer: 1.58 ± 0.13

Question: For GAGGGUCUUGGGAGGGAUGUGAC, which “HRG-induced Akt activation (log2)” value is on record?
Answer: 1.44 ± 0.081

Question: For UACUCCAGAGGGCGUCACUCAUG, which “HRG-induced Akt activation (log2)” value is on record?
Answer: 1.02 ± 0.78

Question: With CUCGGCGCGGGGCGCGGGCUCC as the sequence, how does the “HRG-induced Akt activation (log2)” value read?
Answer: 1.37 ± 0.015

Question: ACCUGGCAUACAAUGUAGAUUU was tested. Which “HRG-induced Akt activation (log2)” value did it give?
Answer: 1.81 ± 0.29

Question: For UGAGGUAGUAGUUUGUGCUGUU, which “HRG-induced Akt activation (log2)” value is on record?
Answer: 1.12 ± 0.026

Question: How did the “HRG-induced Akt activation (log2)” value turn out when AGGCAGUGUAGUUAGCUGAUUGC was run?
Answer: 2.22 ± 0.041

Question: With UCGUGUCUUGUGUUGCAGCCGG as the sequence, how does the “HRG-induced Akt activation (log2)” value read?
Answer: 1.14 ± 0.13

Question: For GGUCCAGAGGGGAGAUAGGUUC, which “HRG-induced Akt activation (log2)” value is on record?
Answer: 1.67 ± 0.24

Question: With GCCUGCUGGGGUGGAACCUGGU as the sequence, how does the “HRG-induced Akt activation (log2)” value read?
Answer: 1.81 ± 0.22

Question: GAAGUUGUUCGUGGUGGAUUCG was tested. Which “HRG-induced Akt activation (log2)” value did it give?
Answer: 2.11 ± 0.022

Question: For UAAUCUCAGCUGGCAACUGUGA, which “HRG-induced Akt activation (log2)” value is on record?
Answer: 1.38 ± 0.37

Question: AUGUAGGGCUAAAAGCCAUGGG was tested. Which “HRG-induced Akt activation (log2)” value did it give?
Answer: 1.01 ± 0.24

Question: For CCCAGUGUUUAGACUAUCUGUUC, which “HRG-induced Akt activation (log2)” value is on record?
Answer: 1.58 ± 0.18

Question: AGCAGCAUUGUACAGGGCUAUGA was tested. Which “HRG-induced Akt activation (log2)” value did it give?
Answer: 1.45 ± 0.015

Question: With AUCCCUUGCAGGGGCUGUUGGGU as the sequence, how does the “HRG-induced Akt activation (log2)” value read?
Answer: 1.02 ± 0.69

Question: With UGAGCCCCUGUGCCGCCCCCAG as the sequence, how does the “HRG-induced Akt activation (log2)” value read?
Answer: 2.137 ± 0.01

Question: For UUCACAAGGAGGUGUCAUUUAU, which “HRG-induced Akt activation (log2)” value is on record?
Answer: 1.442 ± 0.013

Question: With AUUUGUGCUUGGCUCUGUCAC as the sequence, how does the “HRG-induced Akt activation (log2)” value read?
Answer: 0.917 ± 0.31

Question: With GACUAUAGAACUUUCCCCCUCA as the sequence, how does the “HRG-induced Akt activation (log2)” value read?
Answer: 1.07 ± 0.064

Question: With AUAAGACGAACAAAAGGUUUGU as the sequence, how does the “HRG-induced Akt activation (log2)” value read?
Answer: 1.75 ± 0.072

Question: CCAGUUACCGCUUCCGCUACCGC was tested. Which “HRG-induced Akt activation (log2)” value did it give?
Answer: 1.323 ± 0.011

Question: Which “HRG-induced Akt activation (log2)” value does the source give for GAACGGCUUCAUACAGGAGUU here?
Answer: 1.67 ± 0.12

Question: UACCACAGGGUAGAACCACGG was tested. Which “HRG-induced Akt activation (log2)” value did it give?
Answer: 1.43 ± 0.074

Question: Which “HRG-induced Akt activation (log2)” value does the source give for UAGCACCAUUUGAAAUCGGUUA here?
Answer: 1.17 ± 0.57

Question: How did the “HRG-induced Akt activation (log2)” value turn out when GCAGUCCAUGGGCAUAUACAC was run?
Answer: 1.66 ± 0.12

Question: For GUGGGGGAGAGGCUGUC, which “HRG-induced Akt activation (log2)” value is on record?
Answer: 1.33 ± 0.25

Question: UGAGUGUGUGUGUGUGAGUGUGU was tested. Which “HRG-induced Akt activation (log2)” value did it give?
Answer: 2.295 ± 0.0047

Question: For UCCUUCUGCUCCGUCCCCCAG, which “HRG-induced Akt activation (log2)” value is on record?
Answer: 1.47 ± 0.042

Question: How did the “HRG-induced Akt activation (log2)” value turn out when UGUAAACAUCCUCGACUGGAAG was run?
Answer: 1.22 ± 0.25

Question: For AGCCUGAUUAAACACAUGCUCUGA, which “HRG-induced Akt activation (log2)” value is on record?
Answer: 1.23 ± 0.11

Question: AAAAGCUGGGUUGAGAGGGCAA was tested. Which “HRG-induced Akt activation (log2)” value did it give?
Answer: 1.61 ± 0.092

Question: For AGGGAGGGACGGGGGCUGUGC, which “HRG-induced Akt activation (log2)” value is on record?
Answer: 1.89 ± 0.16

Question: How did the “HRG-induced Akt activation (log2)” value turn out when AGACCAUGGGUUCUCAUUGU was run?
Answer: 1.18 ± 0.43

Question: UGGUGCGGAGAGGGCCCACAGUG was tested. Which “HRG-induced Akt activation (log2)” value did it give?
Answer: 0.984 ± 0.11
